{"source": "BindingDB's records for doi:10.1016/j.bmcl.2013.01.056", "about": "(Fudan University, 2013)"}
{"target": "Signal transducer and activator of transcription 3 (Homo sapiens, UniProt P40763)", "sequence (P40763 whole entry)": "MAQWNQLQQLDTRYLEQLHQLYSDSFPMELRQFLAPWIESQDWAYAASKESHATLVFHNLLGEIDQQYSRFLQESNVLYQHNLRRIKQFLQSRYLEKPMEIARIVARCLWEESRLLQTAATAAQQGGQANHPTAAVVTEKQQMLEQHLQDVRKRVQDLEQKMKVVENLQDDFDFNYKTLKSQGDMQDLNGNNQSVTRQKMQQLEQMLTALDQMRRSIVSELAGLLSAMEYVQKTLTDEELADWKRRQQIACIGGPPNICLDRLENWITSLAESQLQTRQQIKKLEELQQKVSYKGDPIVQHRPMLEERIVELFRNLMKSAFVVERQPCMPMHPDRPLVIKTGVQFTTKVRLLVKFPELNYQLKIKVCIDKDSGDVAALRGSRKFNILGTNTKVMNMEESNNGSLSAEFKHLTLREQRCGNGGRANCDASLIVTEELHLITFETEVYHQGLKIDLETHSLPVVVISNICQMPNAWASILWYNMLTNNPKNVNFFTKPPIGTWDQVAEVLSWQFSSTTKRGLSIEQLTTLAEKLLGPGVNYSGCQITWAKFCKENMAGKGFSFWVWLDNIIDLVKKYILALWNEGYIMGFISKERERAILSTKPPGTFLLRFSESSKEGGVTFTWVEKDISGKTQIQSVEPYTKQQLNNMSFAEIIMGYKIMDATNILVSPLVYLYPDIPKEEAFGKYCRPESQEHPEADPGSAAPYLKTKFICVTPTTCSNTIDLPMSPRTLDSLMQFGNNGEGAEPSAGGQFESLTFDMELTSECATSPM", "test": "Inhibition of IL-6-induced STAT3 pathway in human HepG2 cells by luciferase reporter gene assay", "units": {"IC50": "µM"}}
{"smiles": "OCCNCc1cc(Br)ccc1OCc1ccc(Cl)cc1", "IC50": 59.9}
{"smiles": "NS(=O)(=O)c1ccc(NCc2cc(Cl)ccc2OCc2ccccc2)cc1", "IC50": 24.3}
{"smiles": "Oc1ccc(NCc2cc(Cl)ccc2OCc2ccc(Cl)cc2)cc1", "IC50": 26.7}
